# In ChEMBL document CHEMBL1137558, “Synthesis and biological evaluation of new 2-arylcarbonyl-3-trifluoromethylquinoxaline 1,4-di-N-oxide derivatives and their reduced analogues” (2007):
# Tests used:
# [1] = Anticancer activity against prostate cancer cells; assay type: functional; conditions: Homo sapiens, Cancer cell lines
# [2] = Anticancer activity against colon cancer cells; assay type: functional; conditions: Homo sapiens, Cancer cell lines
# [3] = Anticancer activity against leukemia cells; assay type: functional; conditions: Homo sapiens, Leukemia cell
# [4] = Anticancer activity against human NCI60 cells; assay type: functional; conditions: for CC50: read-out: LC50 (the source's name)
# [5] = Anticancer activity against melanoma cells; assay type: functional; conditions: Homo sapiens, Melanoma cell
# [6] = Anticancer activity against renal cancer cells; assay type: functional; conditions: Homo sapiens, Cancer cell lines
# [7] = Anticancer activity against nonsmall lung cancer cells; assay type: functional; conditions: Homo sapiens, Cancer cell lines
# [8] = Anticancer activity against ovarian cancer cells; assay type: functional; conditions: Homo sapiens, Cancer cell lines
# [9] = Anticancer activity against CNS cancer cells; assay type: functional; conditions: Homo sapiens, Cancer cell lines
# [10] = Anticancer activity against breast cancer cells; assay type: functional; conditions: Homo sapiens, Cancer cell lines
# SF-268 = test: Growth inhibition of SF268 cells at 100 uM after 48 hrs; assay type: functional, Homo sapiens; design: scale not given: the % may be the effect or the level left
# MCF7 = test: Growth inhibition of MCF7 cells at 100 uM after 48 hrs; assay type: functional, Homo sapiens; design: scale not given: the % may be the effect or the level left
SMILES,GI50 [1] [nM],GI50 [2] [nM],GI50 [3] [nM],GI50 [4] [nM],TGI [4] [nM],CC50 [4] [nM],GI50 [5] [nM],GI50 [6] [nM],GI50 [7] [nM],GI50 [8] [nM],GI50 [9] [nM],GI50 [10] [nM],Activity (SF-268) [%],Activity (MCF7) [%]
COc1ccc2c(c1)[n+]([O-])c(C(=O)c1cccs1)c(C(F)(F)F)[n+]2[O-],2480,7080,4430,5010,29500,49000,5890,5110,3930,4990,6240,4920,,
Cc1cc2c(cc1C)[n+]([O-])c(C(F)(F)F)c(C(=O)c1cccs1)[n+]2[O-],3890,5310,2710,3470,17400,61700,3990,4620,2810,2340,3050,3080,,
COc1ccc2c(c1)[n+]([O-])c(C(=O)c1ccco1)c(C(F)(F)F)[n+]2[O-],3160,2510,3960,2820,18600,74100,3030,1740,3490,2510,3200,2880,,
O=C(c1ccccc1)c1c(C(F)(F)F)[n+]([O-])c2ccc(C(F)(F)F)cc2[n+]1[O-],270,460,240,510,1230,3890,1130,330,640,580,690,540,,
O=C(c1ccco1)c1c(C(F)(F)F)[n+]([O-])c2ccc(F)cc2[n+]1[O-],2600,1060,300,1620,4270,15800,1560,2410,3130,2030,2350,1330,82,72
O=C(c1ccccc1)c1c(C(F)(F)F)[n+]([O-])c2cc(C(F)(F)F)ccc2[n+]1[O-],1320,1710,770,1290,2950,8320,1230,1470,1660,1180,1710,1410,,
O=C(c1ccco1)c1c(C(F)(F)F)[n+]([O-])c2ccc(Cl)cc2[n+]1[O-],110,210,190,320,2570,10000,490,200,360,560,770,280,,
O=C(c1ccco1)c1nc2cc(C(F)(F)F)ccc2nc1C(F)(F)F,100000,100000,54000,87100,97700,> 100000,100000,100000,81500,90800,75900,84000,,
O=C(c1ccco1)c1nc2cc(C(F)(F)F)ccc2[n+]([O-])c1C(F)(F)F,51900,41400,51100,45700,97700,> 100000,42900,60600,48100,42500,45500,32000,,
O=C(c1ccc2ccccc2c1)c1c(C(F)(F)F)[n+]([O-])c2ccc(Cl)cc2[n+]1[O-],1480,1290,650,1230,2630,5500,1230,1380,1510,1200,1470,1150,,
O=C(c1ccc2ccccc2c1)c1c(C(F)(F)F)[n+]([O-])c2ccc(C(F)(F)F)cc2[n+]1[O-],570,660,260,720,1910,5500,970,580,1420,470,950,990,,
O=C(c1ccc2ccccc2c1)c1c(C(F)(F)F)[n+]([O-])c2cc(Cl)c(Cl)cc2[n+]1[O-],1550,1550,1580,1580,3160,6170,1570,1640,1700,1510,1630,1620,,
Cc1ccc2c(c1)[n+]([O-])c(C(=O)c1cccs1)c(C(F)(F)F)[n+]2[O-],890,880,490,550,5500,33100,900,250,560,270,750,760,,
O=C(c1ccco1)c1c(C(F)(F)F)[n+]([O-])c2cc(Cl)c(Cl)cc2[n+]1[O-],330,500,270,630,3090,11000,1570,310,280,1650,790,1380,,
O=C(c1ccc2ccccc2c1)c1c(C(F)(F)F)[n+]([O-])c2ccc(F)cc2[n+]1[O-],1620,740,440,1150,2820,8320,1120,1480,1540,1200,1610,1700,,
O=C(c1ccc2ccccc2c1)c1c(C(F)(F)F)[n+]([O-])c2cc(F)c(F)cc2[n+]1[O-],1460,1710,770,2190,6460,23400,2500,2180,3470,3800,2510,2360,,
O=C(c1cccs1)c1c(C(F)(F)F)[n+]([O-])c2cc(F)c(F)cc2[n+]1[O-],510,270,50,370,1620,9330,390,500,830,530,440,410,,
O=C(c1ccco1)c1c(C(F)(F)F)nc2ccc(C(F)(F)F)cc2[n+]1[O-],38500,49800,88100,37200,83200,> 100000,31500,28600,39400,29300,25300,34300,,
